Measurements reported in patent publication US20220127247A1, “N-(PYRIDIN-2-YL)PYRIDINE-SULFONAMIDE DERIVATIVES AND THEIR USE IN THE TREATMENT OF DISEASE” (NOVARTIS AG, priority 2019, published 2022).
pEC50: −log10 of the molar value.

Biological target: T1, delF508-CFTR (Homo sapiens, UniProt P13569, DEL508-508)
T1 construct: expressed in transfected cells
Experiment: Measurement of delF508-CFTR-HRP surface expression in CFBE41o- cells
Assay type: cell-based
Details: for pEC50: HRP-tagged delF508-CFTR in CFBE41o- cells, 24 h with compound, luminescence, 10-point curve, top 10 μM; for Emax: efficacy relative to reference compound 3-(6-(1-(2,2-difluorobenzo[d][1,3]dioxol-5-yl)cyclopropane-1-carboxamido)-3-methylpyridin-2-yl)benzoic acid, CFBE41o- cells, 24 h, read-out: DelF508-CFTR-HRP Amax %
Text: Measurement of delF508-CFTR-HRP Surface Expression in CFBE41o-Cells
This assay quantifies the cell surface expressions of the mutant CFTR channel using an extracellular HRP tag.
A cellular assay was developed to measure surface expression of horseradish peroxidase (HRP) tagged delF508-CFTR in the human bronchial epithelial immortalized CFBE41o-cell line (Phuan, P. W., et al, (2014) Molecular Pharmacology 86:42-51). Specifically, the HRP sequence was inserted into the fourth extracellular loop of delF508-CFTR and stably expressed in CFBE41o-cells. Cells were seeded in 384 well plate at a density of 5000 cells/well and incubated at 37° C. for 12 to 24 hours in medium (Gibco MEM #11095, 10% FBS, 10 mM HEPES, […], 200 μg/mL G418, 3 μg/mL Puromycin). The delF508-CFTR-HRP expression was induced with 500 ng/mL doxycycline (Sigma D-9891, dissolved in H2O and sterile filtered) in medium and the cells were incubated at 37° C. for 48 h. Old medium was removed and fresh medium was added containing 500 ng/mL doxycycline and unknown test compound at required test concentration in DMSO, not exceeding 0.5% final DMSO concentration. The highest concentration tested was 10 μM with a 10-point concentration response curve using a 3-fold dilution. After addition of compounds, the cells were incubated for 24 h at 37° C. On the final day, cells were washed four times in PBS containing 1 mM MgCl2 and 0.1 mM CaCl2. HRP-Substrate (SuperSignal ELISA Pico, Fisher #37069) 20 μl/well was added and the luminescence signal was determined (Viewlux, Perkin Elmer). Light was emitted upon addition of exogenous HRP-Substrate only when delF508-CFTR-HRP reached the cell surface and the HRP tag was accessible to the HRP-Substrate (note: HRP-Substrate cannot cross the lipid bilayer to reach delF508-CFTR-HRP misfolded within the cell).
The median activity for the lowest concentration of the compounds on each assay plate was calculated and this value was used to normalize the signal for each well on the respective plate. Three replicates at each concentrations for every compound were run to determine one EC50. The median value was determined and used to calculate compound activities as described below. Effective half maximal values (EC50) were calculated for each compound by performing logistic regression on measured dose-response data points using the equation: […]
where “Y” is the observed activity, “Bottom” is the lowest observed value, “Top” is the highest observed value, and the “Hill coefficient” gives the largest absolute value of the slope. The curve fitting is carried out by a curve fitting program implemented at GNF using Matlab (Mathworks).
The dose response curves also were used to calculate Fold Change (FC) using the equation: […]
Compound efficacy relative to the reference compound 3-(6-(1-(2,2-difluorobenzo[d][1,3]dioxol-5-yl)cyclopropane-1-carboxamido)-3-methylpyridin-2-yl)benzoic acid was determined using the following formula: […]

T1 sequence (P13569 with tags, fused parts or gaps DEL508-508): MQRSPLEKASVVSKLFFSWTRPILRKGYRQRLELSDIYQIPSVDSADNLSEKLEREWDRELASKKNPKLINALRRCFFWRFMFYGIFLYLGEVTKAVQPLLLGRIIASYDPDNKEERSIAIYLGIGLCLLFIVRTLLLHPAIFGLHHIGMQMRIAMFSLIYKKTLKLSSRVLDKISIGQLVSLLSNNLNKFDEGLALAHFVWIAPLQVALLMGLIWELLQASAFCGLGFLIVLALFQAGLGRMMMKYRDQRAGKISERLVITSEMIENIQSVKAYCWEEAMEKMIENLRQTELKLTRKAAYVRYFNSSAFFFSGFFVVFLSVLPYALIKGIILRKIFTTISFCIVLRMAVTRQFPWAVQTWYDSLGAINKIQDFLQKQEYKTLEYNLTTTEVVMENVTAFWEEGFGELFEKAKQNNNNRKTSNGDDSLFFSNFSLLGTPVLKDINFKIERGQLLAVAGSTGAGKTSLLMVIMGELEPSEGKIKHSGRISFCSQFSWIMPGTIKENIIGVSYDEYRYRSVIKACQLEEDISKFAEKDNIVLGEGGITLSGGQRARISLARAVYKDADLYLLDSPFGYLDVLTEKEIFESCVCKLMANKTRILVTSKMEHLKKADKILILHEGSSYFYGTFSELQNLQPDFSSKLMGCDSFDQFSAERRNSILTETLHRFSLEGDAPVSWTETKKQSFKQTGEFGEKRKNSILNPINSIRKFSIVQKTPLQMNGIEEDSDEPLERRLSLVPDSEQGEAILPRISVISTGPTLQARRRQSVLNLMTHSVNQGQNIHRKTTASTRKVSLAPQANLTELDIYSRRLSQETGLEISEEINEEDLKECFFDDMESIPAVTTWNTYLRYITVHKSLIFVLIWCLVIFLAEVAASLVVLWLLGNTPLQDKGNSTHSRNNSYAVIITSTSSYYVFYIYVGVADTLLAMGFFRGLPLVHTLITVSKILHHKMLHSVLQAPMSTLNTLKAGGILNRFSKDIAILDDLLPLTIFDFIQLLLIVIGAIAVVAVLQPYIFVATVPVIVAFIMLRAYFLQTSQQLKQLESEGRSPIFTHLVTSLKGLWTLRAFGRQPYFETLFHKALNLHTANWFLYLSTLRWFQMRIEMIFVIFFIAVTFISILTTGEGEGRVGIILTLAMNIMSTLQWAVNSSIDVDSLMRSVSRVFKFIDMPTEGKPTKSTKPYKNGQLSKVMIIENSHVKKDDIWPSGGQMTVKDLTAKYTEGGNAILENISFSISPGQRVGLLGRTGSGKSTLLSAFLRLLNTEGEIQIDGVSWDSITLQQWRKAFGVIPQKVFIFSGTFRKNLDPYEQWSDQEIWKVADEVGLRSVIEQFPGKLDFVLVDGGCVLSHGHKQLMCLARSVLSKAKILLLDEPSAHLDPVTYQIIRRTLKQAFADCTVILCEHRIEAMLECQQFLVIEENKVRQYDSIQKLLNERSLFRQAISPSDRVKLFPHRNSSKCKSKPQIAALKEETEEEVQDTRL

SMILES	pEC50	Emax
Cc1ccc(F)cc1-c1nc(NS(=O)(=O)c2cccc(N(CCC(=O)O)CC3CC3)n2)ccc1C(F)(F)F [Compound 69, 3-((cyclopropylmethyl)(6-(N-(6-(5-fluoro-2-methylphenyl)-5-(trifluoromethyl)pyridin-2-yl)sulfamoyl)pyridin-2-yl)amino)propanoic Acid]	5.75	–
Cc1c(F)cccc1-c1nc(NS(=O)(=O)c2cccc(N(C)CCC(=O)O)n2)ccc1C(F)(F)F [Compound 49, 3-((6-(N-(6-(3-fluoro-2-methylphenyl)-5-(trifluoromethyl)pyridin-2-yl)sulfamoyl)pyridin-2-yl)(methyl)amino)propanoic Acid]	5.69	557%
Cc1ccccc1-c1nc(NS(=O)(=O)c2cccc(N[C@@H]3CCC[C@H](C(=O)O)C3)n2)ccc1C(F)(F)F (racemic) [106a 106b (racemic mixture)]	5.71	392%
CC1(C(=O)O)CCN(c2cccc(S(=O)(=O)Nc3ccc(C(F)(F)F)c(-c4ccccc4Oc4ccccc4)n3)n2)CC1 [Compound 28, 4-methyl-1-(6-(N-(6-(2-phenoxyphenyl)-5-(trifluoromethyl)pyridin-2-yl)sulfamoyl)pyridin-2-yl)piperidine-4-carboxylic Acid]	5.84	442%
Cc1ccccc1-c1nc(NS(=O)(=O)c2cccc(N(C)CC3(C(=O)O)CCC3)n2)ccc1C(F)(F)F [Compound 137, 1-((methyl(6-(N-(6-(o-tolyl)-5-(trifluoromethyl)pyridin-2-yl)sulfamoyl)pyridin-2-yl)amino)methyl)cyclobutane-1-carboxylic Acid]	5.69	–
O=C(O)CC1CCN(c2cccc(S(=O)(=O)Nc3ccc(C(F)(F)F)c(-c4ccccc4-c4ccccc4)n3)n2)CC1 [Compound 16, 2-(1-(6-(N-(6-([1,1′-biphenyl]-2-yl)-5-(trifluoromethyl)pyridin-2-yl)sulfamoyl)pyridin-2-yl)piperidin-4-yl)acetic Acid]	5.70	495%
Cc1ccccc1-c1nc(NS(=O)(=O)c2cccc(N3CCCC(CC(=O)O)C3)n2)ccc1C(F)(F)F (stereo not drawn) [Compound 88, 2-(1-(6-(N-(6-(o-tolyl)-5-(trifluoromethyl)pyridin-2-yl)sulfamoyl)pyridin-2-yl)piperidin-3-yl)acetic Acid]	5.69	–
O=C(O)CCCNc1cccc(S(=O)(=O)Nc2ccc(C(F)(F)F)c(-c3ccccc3C3CC3)n2)n1 [Compound 40, 4-((6-(N-(6-(2-cyclopropylphenyl)-5-(trifluoromethyl)pyridin-2-yl)sulfamoyl)pyridin-2-yl)amino)butanoic Acid]	5.60	314%
Cc1ccccc1-c1nc(NS(=O)(=O)c2cccc(N3CCC(O)(C(C)(C)C(=O)O)CC3)n2)ccc1C(F)(F)F [Compound 9, 2-(4-hydroxy-1-(6-(N-(6-(o-tolyl)-5-(trifluoromethyl)pyridin-2-yl)sulfamoyl)pyridin-2-yl)piperidin-4-yl)-2-methylpropanoic Acid]	5.69	102%
C=Cc1ccccc1-c1nc(NS(=O)(=O)c2cccc(N3CCC[C@@H](CC(=O)O)C3)n2)ccc1C(F)(F)F [Compound 58, (S)-2-(1-(6-(N-(5-(trifluoromethyl)-6-(2-vinylphenyl)pyridin-2-yl)sulfamoyl)pyridin-2-yl)piperidin-3-yl)acetic Acid]	5.63	–
Cc1ccccc1-c1nc(NS(=O)(=O)c2cccc(N3CCC(CCC(=O)O)CC3)n2)ccc1C(F)(F)F [Compound 79, 3-(1-(6-(N-(6-(o-tolyl)-5-(trifluoromethyl)pyridin-2-yl)sulfamoyl)pyridin-2-yl)piperidin-4-yl)propanoic Acid]	5.54	330%
Cc1ccccc1-c1nc(NS(=O)(=O)c2cccc(NCC3(C(=O)O)CCC3)n2)ccc1C(F)(F)F [Compound 12, 1-(((6-(N-(6-(o-tolyl)-5-(trifluoromethyl)pyridin-2-yl)sulfamoyl)pyridin-2-yl)amino)methyl)cyclobutane-1-carboxylic Acid]	5.64	608%
Cc1ccccc1-c1nc(NS(=O)(=O)c2cccc(N(CCCCC(=O)O)C(C)C)n2)ccc1C(F)(F)F [Compound 101, 5-(isopropyl(6-(N-(6-(o-tolyl)-5-(trifluoromethyl)pyridin-2-yl)sulfamoyl)pyridin-2-yl)amino)pentanoic Acid]	5.80	–
CC1(C(=O)O)CCN(c2cccc(S(=O)(=O)Nc3ccc(C(F)(F)F)c(-c4ccccc4-c4ccncc4)n3)n2)CC1 [Compound 27, 4-methyl-1-(6-(N-(6-(2-(pyridin-4-yl)phenyl)-5-(trifluoromethyl)pyridin-2-yl)sulfamoyl)pyridin-2-yl)piperidine-4-carboxylic Acid]	5.68	189%
CCc1ccccc1-c1nc(NS(=O)(=O)c2cccc(N3CCCC(CCC(=O)O)C3)n2)ccc1C(F)(F)F (stereo not drawn) [Compound 82, 3-(1-(6-(N-(6-(2-ethylphenyl)-5-(trifluoromethyl)pyridin-2-yl)sulfamoyl)pyridin-2-yl)piperidin-3-yl)propanoic Acid]	5.98	–
O=C(O)CC1CCN(c2cccc(S(=O)(=O)Nc3ccc(C(F)(F)F)c(-c4ccccc4C4CC4)n3)n2)C1 (stereo not drawn) [Compound 33, 2-(1-(6-(N-(6-(2-cyclopropylphenyl)-5-(trifluoromethyl)pyridin-2-yl)sulfamoyl)pyridin-2-yl)pyrrolidin-3-yl)acetic Acid]	5.89	320%
Cc1ccccc1-c1nc(NS(=O)(=O)c2cccc(N3CCC[C@@](C)(CC(=O)O)C3)n2)ccc1C(F)(F)F (single isomer, unassigned) [Compound 122]	5.79	785%
CCc1ccccc1-c1nc(NS(=O)(=O)c2cccc(OC3CCC(C(=O)O)CC3)n2)ccc1C(F)(F)F (stereo not drawn) [Compound 120, 4-((6-(N-(6-(2-ethylphenyl)-5-(trifluoromethyl)pyridin-2-yl)sulfamoyl)pyridin-2-yl)nxy)cyclohexane-1-carboxylic Acid]	5.86	330%
Cc1cccc(C)c1-c1nc(NS(=O)(=O)c2ccnc(NCCC(=O)O)c2)ccc1Cl [Compound 2, 3-((4-(N-(5-chloro-6-(2,6-dimethylphenyl)pyridin-2-yl)sulfamoyl)pyridin-2-yl)amino)propanoic Acid]	5.57	124%
Cc1ccccc1-c1nc(NS(=O)(=O)c2cccc(SCCC(=O)O)n2)ccc1C(F)(F)F [Compound 117, 3-((6-(N-(6-(o-tolyl)-5-(trifluoromethyl)pyridin-2-yl)sulfamoyl)pyridin-2-yl)thio)propanoic Acid]	5.61	196%
CC1(C(=O)O)CCN(c2cccc(S(=O)(=O)Nc3ccc(C(F)(F)F)c(-c4ccccc4-c4ccccc4)n3)n2)CC1 [Compound 20, 1-(6-(N-(6-([1,1′-biphenyl]-2-yl)-5-(trifluoromethyl)pyridin-2-yl)sulfamoyl)pyridin-2-yl)-4-methylpiperidine-4-carboxylic Acid]	6.10	973%
CCc1ccccc1-c1nc(NS(=O)(=O)c2cccc(N3CCC[C@H](CC(=O)O)C3)n2)ccc1C(F)(F)F [Compound 84, (R)-2-(1-(6-(N-(6-(2-ethylphenyl)-5-(trifluoromethyl)pyridin-2-yl)sulfamoyl)pyridin-2-yl)piperidin-3-yl)acetic Acid]	5.81	–
Cc1ccccc1-c1nc(NS(=O)(=O)c2cccc(N(CCC(=O)O)CCC(F)(F)F)n2)ccc1C(F)(F)F [Compound 150, 3-((6-(N-(6-(o-tolyl)-5-(trifluoromethyl)pyridin-2-yl)sulfamoyl)pyridin-2-yl)(3,3,3-trifluoropropyl)amino)propanoic Acid]	5.78	–
CC1(CC(=O)O)CCN(c2cccc(S(=O)(=O)Nc3ccc(C(F)(F)F)c(-c4ccccc4-c4ccccc4)n3)n2)CC1 [Compound 23, 2-(1-(6-(N-(6-([1,1′-biphenyl]-2-yl)-5-(trifluoromethyl)pyridin-2-yl)sulfamoyl)pyridin-2-yl)-4-methylpiperidin-4-yl)acetic acid]	5.90	–
